This is an account of results in patent US5631394A, “Pharmaceutically active ceramide-related compounds” (The Liposome Company, Inc., priority 1995, dated 1997).

The GI50 is the concentration that inhibits growth by half. Read a low GI50 as more potent growth inhibition.

Data set [1] has as its system A549 cells. Nature of the data set: sulforhodamine B cytotoxicity assay, 72 hour drug exposure, A549. The class given is cell-based. Conditions: Homo sapiens. For orientation: In SRB staining, fixed cells bind dye roughly in proportion to their protein.
The test system of another data set is LEWIS LUNG cells. Nature of the data set: sulforhodamine B cytotoxicity assay, 72 hour drug exposure, Lewis lung. The class given is cell-based.
A further data set concerns OVCAR 3 cells. The data set can be described thus: sulforhodamine B cytotoxicity assay, 72 hour drug exposure, OVCAR 3. In kind it is cell-based. Conditions: Homo sapiens.
A further data set relates to CAKI 1 cells. The data set can be described thus: sulforhodamine B cytotoxicity assay, 72 hour drug exposure, CAKI 1. The class given is cell-based.
The test system of another data set is SKMEL 28 cells. Nature of the data set: sulforhodamine B cytotoxicity assay, 72 hour drug exposure, SKMEL 28. The class given is cell-based. Conditions: Homo sapiens.
A further data set concerns MCF7/ADR cells. Nature of the data set: sulforhodamine B cytotoxicity assay, 72 hour drug exposure, MCF7/ADR. The class given is cell-based.
The next data set relates to MCF7 cells. Nature of the data set: sulforhodamine B cytotoxicity assay, 72 hour drug exposure, MCF7. The class given is cell-based.
Another data set concerns HT 29 cells. Nature of the data set: sulforhodamine B cytotoxicity assay, 72 hour drug exposure, HT 29. In kind it is cell-based.
A further data set deals with U937 cells. Nature of the data set: sulforhodamine B cytotoxicity assay, 72 hour drug exposure, U937. In kind it is cell-based. Conditions: Homo sapiens, U-937. On the procedure:
(§1) These studies were performed using a sulforrhodamine B assay (see Monks et al., J. Natl. Cancer Inst. (U.S.) 83:757 ([…])). Compounds were dissolved in ethanol. Results from these studies, presented in the following tables, are expressed as Gl50 values, that is, concentration of a drug (micromolar) required to inhibit growth of fifty percent of the cells.

In another data set the test system is MCF 7/ADR cells. Nature of the data set: in vitro sensitivity at different drug exposure times, MCF 7/ADR. The class given is cell-based. Conditions: Homo sapiens, NCI/ADR-RES. On the procedure: as §1
The subject of data set [2] is A549 cells. The data set can be described thus: in vitro sensitivity at different drug exposure times, A549. The class given is cell-based. Conditions: Homo sapiens. On the procedure: as §1
In the next data set the test system is RPMI 7666 cells. The data set can be described thus: sulforhodamine B cytotoxicity assay, 72 hour drug exposure, RPMI 7666. In kind it is cell-based. As to the method: as §1
For a further data set, the system named is mice. Nature of the data set: in vivo toxicity after i.v. injection in mice.
A further data set relates to P388 cells. The data set can be described thus: sulforhodamine B cytotoxicity assay, 72 hour drug exposure, P388. The class given is cell-based. Conditions: Mus musculus. On the procedure:
as §1

The test system of a further data set is P388/ADR cells. The data set can be described thus: sulforhodamine B cytotoxicity assay, 72 hour drug exposure, P388/ADR. Conditions: Mus musculus. The class given is cell-based. As to the method:
as §1

The subject of another data set is C3H10T1/2 cells. Nature of the data set: sulforhodamine B cytotoxicity assay, 72 hour drug exposure, C3H10T1/2. In kind it is cell-based. Conditions: Mus musculus, C3H 10T1/2. On the procedure: as §1
Setting [3] is: Homo sapiens, NCI/ADR-RES, 72 h.

Take `CCCCCCCCCCCCC/C=C/[C@@H](O)[C@H](CO)NCCCC` [N-C4 Sphingosine, N-C4 sphingosine]: the GI50 in the data set on A549 cells [1] (A549, 72 h) came out at 4.9 ± 0.1 µM; with LEWIS LUNG cells (Lewis lung carcinoma, 72 h) it was 5.08 ± 0.13 µM; with OVCAR 3 cells (OVCAR-3, 72 h), 14.1 ± 0.35 µM; in the data set on CAKI 1 cells (Homo sapiens, CAKI-1, 72 h) it was 6.88 ± 0.52 µM; with SKMEL 28 cells (SK-MEL-28, 72 h) it was 6.13 ± 1.03 µM; with MCF7/ADR cells (setting [3]), 9.6 ± 0.47 µM. Further, the GI50 in the data set on MCF7 cells (Homo sapiens, MCF7, 72 h) is 4.88 ± 0.03 µM; in the data set on HT 29 cells (Homo sapiens, HT-29, 72 h), 6.49 ± 0.11 µM.

Turning to `CCCCCCCCCCCCC/C=C/[C@@H](O)[C@H](COC(C)=O)NC(=O)CCCCC` [1-Acetate C6-Ceramide, 1-acetate, C6-ceramide], the GI50 in the data set with A549 cells [1] (A549, 72 h) was 12.7 ± 7.6 µM; in the data set with U937 cells it was 11.3 ± 1 µM; in the data set on LEWIS LUNG cells (Lewis lung carcinoma, 72 h), 8.5 ± 0.4 µM; with MCF 7/ADR cells (1 hour pulse) it was over 100 µM; in the data set on MCF 7/ADR cells (4 hour pulse), 59.5 ± 1.4 µM; in the data set on MCF 7/ADR cells (8 hour pulse), 42.7 ± 1.2 µM. Besides, the GI50 in the data set with MCF 7/ADR cells (24 hour pulse) came to 19.5 ± 0.8 µM; in the data set on MCF 7/ADR cells (48 hour pulse) it was 15.6 ± 0.9 µM; with MCF 7/ADR cells (72 hour continuous exposure) it was 16.7 ± 1.7 µM; in the data set with A549 cells [2] (1 hour pulse) it was 92.9 ± 1.3 µM; in the data set on A549 cells [2] (4 hour pulse), 44.1 ± 1.3 µM; in the data set on A549 cells [2] (8 hour pulse) it was 35.3 ± 2.5 µM. Moreover, the GI50 in the data set on A549 cells [2] (24 hour pulse) stood at 7.2 ± 0.2 µM; in the data set on A549 cells [2] (48 hour pulse), 4.35 ± 0.1 µM; in the data set on A549 cells [2] (72 hour continuous exposure), 5.1 ± 0.1 µM; with RPMI 7666 cells, 9 ± 2 µM.

In the case of `CCCCCCCCCCCCCC(O)C(O)[C@@H](O)[C@H](CO)NC(=O)CCCCC` (some centres unmarked) [4,5-Diol C6-Ceramide, 4,5-diol C6-Cer], the GI50 amounted to 25.1 ± 0.3 µM in the data set with A549 cells [1] (A549, 72 h); 15.2 µM with LEWIS LUNG cells (Mus musculus, Lewis lung carcinoma, 72 h); 38.2 ± 2.3 µM in the data set on OVCAR 3 cells (OVCAR-3, 72 h); 28.3 ± 1.1 µM in the data set on MCF7/ADR cells (setting [3]); 20.7 ± 0.1 µM in the data set on MCF7 cells (Homo sapiens, MCF7, 72 h); 14.6 ± 0.4 µM in the data set on HT 29 cells (Homo sapiens, HT-29, 72 h).

As to `CCCCCCCCCCCCC/C=C/[C@@H](O[Si](C)(C)C(C)(C)C)[C@H](CO[Si](C)(C)C(C)(C)C)NC(=O)CCCCC` [1,3-DiTBDMS C6-Ceramide, 1,3 DiTBDMS C6 Cer], the GI50 is over 200 µM in the data set on A549 cells [1], 134 ± 28.8 µM in the data set on U937 cells, over 200 µM with LEWIS LUNG cells (Lewis lung carcinoma) and over 200 µM with RPMI 7666 cells.

With `CCCCCCCCCCCCC/C=C/[C@@H](O)[C@H](CO)NCCCCCC` [N-Hexyl Sphingosine, n-hexyl sphingosine], the 50% growth inhibitory concentration (GI50) came to 4.9 ± 0.1 µM in the data set on A549 cells [1] (A549, 72 h); 4.9 ± 0.1 µM with LEWIS LUNG cells (Lewis lung carcinoma, 72 h); 4.61 ± 0.04 µM with LEWIS LUNG cells (listed as N-C6 Sphingosine); 4.99 ± 0.05 µM with OVCAR 3 cells (OVCAR-3, 72 h); 2.59 ± 0.3 µM in the data set with P388 cells; 6.84 ± 3.62 µM in the data set on CAKI 1 cells (Homo sapiens, CAKI-1, 72 h). Besides, the GI50 in the data set on CAKI 1 cells (listed as N-C6 Sphingosine) worked out at 4.28 ± 0.04 µM; in the data set with SKMEL 28 cells (SK-MEL-28, 72 h), 4.94 ± 0.66 µM; with MCF7/ADR cells (setting [3]), 5.57 ± 1.17 µM; in the data set with MCF7/ADR cells (listed as N-C6 Sphingosine) it was 4.69 ± 0.1 µM; in the data set with P388/ADR cells it was 2.61 ± 1.7 µM; with MCF7 cells (Homo sapiens, MCF7, 72 h), 4.8 ± 0.1 µM. Besides, the GI50 in the data set with MCF7 cells (listed as N-C6 Sphingosine) came to 4.74 ± 0.09 µM; in the data set with HT 29 cells (Homo sapiens, HT-29, 72 h), 5.2 ± 0.1 µM; in the data set on HT 29 cells (listed as N-C6 Sphingosine) it was 5.03 ± 0.06 µM. The “Number of Animals Dead” value is 0/2 in the data set with mice (12.5 mg/kg), 0/2 with mice (25 mg/kg), 0/2 with mice (50 mg/kg) and 2/2 with mice (100 mg/kg).

Take `CCCCCCCCCCCCC/C=C/[C@@H](O)[C@@H](N)CO` [Sphingosine, reference compound]: the GI50 was found to be 20.2 ± 0.8 µM in the data set with A549 cells [1]; 12.2 ± 0.1 µM in the data set with LEWIS LUNG cells (Lewis lung carcinoma); 44.6 ± 0.9 µM with OVCAR 3 cells; 39.7 ± 0.8 µM in the data set with CAKI 1 cells (Homo sapiens); 15.6 ± 1 µM with SKMEL 28 cells (SK-MEL-28); 19.8 µM in the data set with MCF7/ADR cells (Homo sapiens, NCI/ADR-RES). For the same compound, the GI50 in the data set with MCF7 cells (Homo sapiens) amounted to 20.4 ± 0.4 µM; in the data set on HT 29 cells (Homo sapiens), 19.3 ± 0.1 µM.

For the compound `CCCCCCCCCCCCC/C=C/[C@@H](O)[C@H](COC(=O)C(C)C)NC(=O)CCCCC` [1-Isobutyrate C6-Ceramide, 1-isobutyrate, C6-ceramide], the GI50 with A549 cells [1] (A549, 72 h) is 7.9 ± 3.5 µM; with MCF 7/ADR cells (1 hour pulse), over 100 µM; in the data set on MCF 7/ADR cells (4 hour pulse) it was over 100 µM; with MCF 7/ADR cells (8 hour pulse) it was 52.3 ± 1.6 µM; in the data set with MCF 7/ADR cells (24 hour pulse), 22.7 ± 1.1 µM; in the data set with MCF 7/ADR cells (48 hour pulse), 18.7 ± 0.5 µM. In addition, the GI50 in the data set with MCF 7/ADR cells (72 hour continuous exposure) was 19.6 ± 1 µM; with A549 cells [2] (1 hour pulse) it was over 100 µM; with A549 cells [2] (4 hour pulse) it was over 100 µM; in the data set with A549 cells [2] (8 hour pulse), 40.2 ± 2.5 µM; in the data set on A549 cells [2] (24 hour pulse), 8.4 ± 0.7 µM; with A549 cells [2] (48 hour pulse) it was 5.2 ± 0.3 µM. Besides, the GI50 in the data set on A549 cells [2] (72 hour continuous exposure) was found to be 5.6 ± 0.2 µM; with MCF7/ADR cells (setting [3]), 37.8 ± 4.67 µM.

On to `CCCCCCCCCCCCC/C=C/[C@@H](O[Si](C)(C)C(C)(C)C)[C@H](CO)NC(=O)CCCCC` [3-TBDMS C6-Ceramide, 3-TBDMS C6-Cer], for which the GI50 in the data set with A549 cells [1], in the data set on U937 cells, in the data set with LEWIS LUNG cells (Lewis lung carcinoma), with C3H10T1/2 cells and with RPMI 7666 cells was over 200 µM each time.
